According to patent publication US20170112792A1, “ENHANCED ATRA-RELATED COMPOUNDS DERIVED FROM STRUCTURE-ACTIVITY RELATIONSHIPS AND MODELING FOR INHIBITING PIN1” (Beth Israel Deaconess Medical Center, Inc., priority 2014, published 2017):
Entries after “also recorded” stand apart in the source; their conditions may differ. Non-standard residues stand in square brackets, D forms with d. No end group written: not given here. d(pT) = C[C@H](OP(=O)(O)O)[C@@H](N)C(=O)O; Pip = O=C(O)[C@@H]1CCCCN1

Legend:
[1] = target: T1, GST-Pin1 (Homo sapiens, UniProt Q13526); experiment: fluorescence polarization (FP) pTide competition assay / FP-HTS
T1 sequence (Q13526 whole entry): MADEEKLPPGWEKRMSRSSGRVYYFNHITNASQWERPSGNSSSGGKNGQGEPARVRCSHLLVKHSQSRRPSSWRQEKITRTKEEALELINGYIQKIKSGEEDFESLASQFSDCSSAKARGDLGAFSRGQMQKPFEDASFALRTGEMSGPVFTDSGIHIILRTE
Excerpt: This sequence was optimized for solubility and binding to GST-PPI. […] Measurements of fluorescence polarization and fluorescence absorbance were made in black 384-well plates (Corning) using a Synergy II plate reader. Compounds were transferred to plates using a custom-built Seiko pin-transfer robot at the Institute for Chemistry and Cell Biology at Harvard Medical School. The assay can tolerate up to 10%/o DMSO.
Molecules that compete with pTide for binding to the active site, e.g., Pin1 substrates, were detected under equilibrium conditions. A Z score was used to identify and rank those molecules that were most competitive with pTide (e.g., that have higher binding affinity). A Z score is defined as Z=(x−μ)/σ, where x is a raw score, μ is the mean of the population, and σ is the standard deviation of the population. Molecules with the most negative Z scores represent those with the highest Pin1 binding affinity. The Z′ value for this assay was around 0.70 and was consistent for day-to-day performance, with a coefficient of variation in the range of 4-5%.
A lower value of Ki is indicative of higher association and, accordingly, higher affinity of the substrate to the protein.

[2] = cited from earlier work
[3] = tested on: vector control or Rab2A-overexpressing HMLEs; experiment: BFA treatment of HMLE cells (ERGIC53 staining, Erk1/2 blots); format: cell-based, human; details: 10 μg/ml BFA
Excerpt: To elucidate how Rab2A overexpression or its Q58H mutation activates Erk1/2, we first examined whether Rab2A co-localized with Erk1/2. HMLE cells were starved and then stimulated by EGF to induce Erk1/2 phosphorylation. […] Overexpressing Rab2A Q58H at levels similar to the endogenous level also activated and colocalized with Erk1/2 like overexpressing WT Rab2A at 3 times higher levels (FIGS. 45A and 46A). To determine where Rab2A or its Q58H mutant colocalized with Erk1/2 at the perinuclear region, we performed double immunostaining Rab2A and ERGIC53, an ER-Golgi intermediate compartment (ERGIC) marker. Both Rab2A and its Q58H mutant colocalized with Erk1/2 at the ERGIC (FIG. 45B). Thus, overexpressed Rab2A or its Q58H mutant co-localizes with Erk1/2 and promotes Erk1/2 activation at the ERGIC. To examine whether Rab2A's vesicular trafficking function is associated with Erk activation, we used brefeldin A (BFA) to block the trafficking from the ERGIC to ER because BFA dissociates ADP ribosylation factor (ARF) effectors from Golgi and ERGIC membranes, leading to block in both anterograde and retrograde transport.

[4] = tested on: human normal and breast cancer cell lines; experiment: cell growth of human normal and breast cancer cell lines; format: cell-based
Method: (§1) Absorbance was determined at 570 nm.
To test this possibility, we chose breast cancer as a model due to the substantial oncogenic role of Pin1 in vitro and in vivo.

[5] = tested on: GST-cyclophilin; experiment: chymotrypsin coupled PPlase activity assay, cyclophilin
[6] = target: T1, GST-Pin1; experiment: chymotrypsin coupled PPlase activity assay, Pin1; format: biochemical
Excerpt: where Km is the Michaelis constant for the used substrate, S is the initial concentration of the substrate in the assay, and the IC50 value is of the inhibitor.

[7] = target: GST-FKBP12 (Homo sapiens, UniProt P62942); experiment: chymotrypsin coupled PPlase activity assay, FKBP12; format: biochemical
GST-FKBP12, sequence (P62942 whole entry): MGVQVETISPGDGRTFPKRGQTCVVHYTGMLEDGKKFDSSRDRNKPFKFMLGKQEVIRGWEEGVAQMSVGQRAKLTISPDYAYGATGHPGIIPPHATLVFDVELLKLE

[8] = tested on: RAR; experiment: transactivation of RAR downstream target genes
[9] = tested on: human APL NB4 cells; experiment: NB4 cell growth; format: cell-based; details: co-treatment with ATRA
Method: as §1

[10] = tested on: Pin1 and PML-RARα in NB4 cells; experiment: immunoblot of Pin1 and PML-RARα in APL NB4 cells; format: cell-based, human; details: for PML-RARα level in APL cells: 72 hours
Method: For immunoprecipitation and immunoblotting in the examples below, cells were polyethylenimine (PEI)- or lipofemamine-transfected with 8 μg of various plasmids, incubated in 10 cm dishes for 24 hours, and subsequently treatment with drugs as needed. […] After centrifugation at 13,000 g for 10 minutes, one tenth of the supernatant was stored as input, and the remainder was incubated 12 hours with M2 Flag agarose (Sigma). After brief centrifugation, immunoprecipitates were collected, extensively washed with the aforementioned lysis buffer twice, suspended in 2×SDS sample buffer (100 mM Tris-HCl, pH 6.8, 4% SDS, 5% β-mercaptoethanol, 20% glycerol, and 0.1% bromphenol blue), boiled for 10 minutes, and subjected to immunoblotting analysis. […] After electrophoresis, gel was transferred to nitrocellulose membranes using a semidry transfer cell. The transblotted membrane was washed twice with Tris-buffered saline containing 0.1% Tween 20 (TBST). After blocking with TBST containing 5% bovine serum albumin (BSA) for 1 hour, the membrane was incubated with the appropriate primary antibody (diluted 1:1000) in 2% BSA-containing TBST at 4° C. overnight. After incubation with the primary antibody, the membrane was washed three times with TBST for a total of 30 minutes followed by incubation with horseradish peroxidase (HRP)-conjugated goat anti-rabbit or anti-mouse IgG (diluted 1:2500) for 1 hour at room temperature. After three extensive washes with TBST for a total of 30 minutes, the immunoblots were visualized by enhanced chemiluminescence.

[11] = tested on: NB4 cells; experiment: APL cell differentiation in NB4 cells (Giemsa, FACS CD14/CD11b); format: cell-based, human; details: 72 hours
[12] = tested on: APL cells isolated from hCG-PML-RARα transgenic mice

In the case of `CC1=C(/C=C/C(C)=C/C=C/C(C)=C/CO)C(C)(C)CCC1` [retinol], the “Pin1 binding in FP assay” value [1] is reported as “totally inactive”.
For `CC1(C)CCC(C)(C)c2cc(NC(=O)c3ccc(C(=O)O)cc3)ccc21` [tamibarotene], the “Pin1 binding in FP assay” value [1] was “moderate binding”.
With `COc1cc(C)c(/C=C/C(C)=C/C=C/C(C)=C/C(=O)O)c(C)c1C` [acitretin] the “Pin1 binding in FP assay” value [1] was “moderate binding”.
For “Bth-D-phos.Thr-Pip-Nal ([Bth][d(pT)][Pip][Nal]) [pTide]”, the cell permeability [2] is listed as “low cell permeability” and the binding selectivity ([1]; Pin1 PPlase domain vs WW domain vs FKBP12) is listed as “selectively binds Pin1 at its PPlase domain and does not bind to the WW domain of Pin1 or to FKBP12”.
With `C[C@H]1CCC/C=C/[C@@H]2C[C@H](O)C[C@H]2[C@H](O)/C=C/C(=O)O1` [BFA, brefeldin A] the Erk phosphorylation [3] was “did not obviously affect Erk phosphorylation” and the “ERGIC structure (ERGIC53 staining)” value ([3]; 30 min) was “ERGIC structures were damaged”.
With `Clc1cccc(C(c2ccc3[nH]cnc3c2)n2ccnc2)c1` (stereo not shown) [liarazole] the “combination effect with ATRA on inhibition of cell proliferation” value ([4]; AU565 or SKBR3 cells) was “generally additive effects with ATRA”.
With `O=C(O)Cc1c[nH]c2ccccc12` [indo-3-acetic acid] the “Pin1 binding in FP assay” value [1] was “neither pravastatin nor indo-3-acetic acid demonstrated any binding”.
In the case of `C=C(c1ccc(C(=O)O)cc1)c1cc2c(cc1C)C(C)(C)CCC2(C)C` [bexarotene], the “Pin1 binding in FP assay” value [1] is reported as “marginal binding; also recorded: less potent than ATRA”.
For `CC1=C(/C=C/C(C)=C/C=C/C(C)=C\C(=O)O)C(C)(C)CCC1` [13cRA, (2Z,4E,6E,8E)-3,7-dimethyl-9-(2,6,6-trimethylcyclohexen-1-yl)nona-2,4,6,8-tetraenoic acid], the inhibition of cyclophilin [5] was “did not inhibit”, the Ki [1] was 1160 nM and the “binding to Pin1 in FP assay after longer incubation” value ([1]; 24 hours incubation vs 0.5 hours) was “difference in binding between 13cRA and ATRA disappears after a longer incubation”. For the same molecule, the “Z score in FP-HTS” value ([1]; ~8200 compounds screened, competition with pTide) was “lowest Z score”, the “inhibition of PPlase activity of Pin1” value [6] was “fully inhibited” and the Ki ([6]; Cheng-Prusoff equation, read-out: Ki from PPlase assay) was 2370 nM. The “inhibition of FKBP12” value [7] was “did not inhibit”.
With `CCCCCCCOc1cc2c(cc1/C(C)=C/c1ccc(C(=O)O)cc1)C(C)(C)CCS2(=O)=O` [Ro-415253] the “transactivation of RAR downstream target genes” value [8] was “suppresses it”, the “rescue of NB4 cell proliferation suppressed by ATRA” value [9] was “unable to rescue NB4 cell proliferation suppressed by ATRA” and the “effect on the ability of ATRA to induce Pin1 degradation or inhibit cell growth” value ([4]; breast cancer cells (T47D)) was “no obvious effects”. For the same molecule, the “Pin1 binding in FP assay” value [1] was “minimal Pin1 binding” and the “restoration of ATRA-mediated Pin1 degradation” value ([10]; co-treatment with ATRA) was “unable to restore ATRA-mediated Pin1 degradation”.
In the case of `O=C(O[C@@H]1Cc2c(O)cc(O)cc2O[C@@H]1c1cc(O)c(O)c(O)c1)c1cc(O)c(O)c(O)c1` [EGCG], the APL cell differentiation [11] is reported as “neither Pin1 inhibitors nor Pin1 KD induced APL cell differentiation”, the “Pin1 degradation in NB4 cells” value [10] is reported as “inhibited Pin1 without degrading it” and the “PML-RARα level in APL cells” value [10] is reported as “dose-dependently reduced PML-RARα”. For the same molecule, the “condition of treated mice (toxic effects)” value ([12]; mouse, in vivo) was “rather sick”, the “PML-RARα in the bone marrow” value ([12]; same regimens) was “effectively reduced PML-RARα” and the spleen weights ([12]; same regimens) was “nearly at basal levels”.
With `CC(=O)OC/C=C(C)/C=C/C=C(C)/C=C/C1=C(C)CCCC1(C)C` [retinyl acetate] the “Pin1 binding in FP assay” value [1] was “totally inactive”.
For `CC1=C(/C=C/C(C)=C/C=C/C(C)=C/C(=O)Nc2ccc(O)cc2)C(C)(C)CCC1` [fenretinide], the “Pin1 binding in FP assay” value [1] was “less potent than ATRA”.
For `CCOC(=O)CN1C(=O)c2ccc3c4c(ccc(c24)C1=O)C(=O)N(CC(=O)OCC)C3=O` [PiB], the APL cell differentiation [11] was “neither Pin1 inhibitors nor Pin1 KD induced APL cell differentiation”, the “Pin1 degradation in NB4 cells” value [10] was “inhibited Pin1 without degrading it” and the “PML-RARα level in APL cells” value [10] was “dose-dependently reduced PML-RARα”.
With `CC1=C(/C=C/C(C)=C/C=C/C(C)=C/C=O)C(C)(C)CCC1` [retinal] the “Pin1 binding in FP assay” value [1] was “totally inactive”.
